From US20080026417A1, “ASSAYS FOR TRICHOMONAL AND OTHER HYDROLASES” (priority 2002, published 2008)
Values joined by “and” are separate entries in the source; they are usually repeats but may differ in a detail not shown here. Identical values can stand only once.

Legend:
[1] = system: non-trichomonal hydrolases present in normal vaginal fluid supernatants; assay: Experiment 6 part 1: inhibition of non-trichomonal hydrolases in filtered normal vaginal fluid; type: biochemical, human; set-up: key: 0: Yellow; 1: Peach; 2: Orange; 3: Light to medium pink; 4: Dark pink or red; 5: Fuchsia; 6: Purple; details: uninfected, ZRR-MNA, 20 μg/mL antipain or 1 mM chymostatin
Procedure: (§1) Substrate/inhibitor combinations were prepared by mixing 4 μL of 100 mM ZRR-MNA, 20 μL of 1M HEPES buffer, 56 μL of deionized water, and 20 μL of either antipain, chymostatin, or deionized water. Filtered vaginal fluid was prepared from each specimen as follows: the swab was placed in a cuvette containing 200 μL of diluent and the swab was rotated in the diluent to thoroughly mix the swab contents into the diluent. The swab was removed, the swab head was broken off into a microfuge tube, and the liquid remaining in the swab head was forced out by centrifugation. The fluid extracted from the swab was combined with the liquid in the cuvette, and the total volume of fluid was filtered using a centrifuge filter unit to remove particulate matter.
(§2) For each specimen, 4 μL of vaginal fluid filtrate was mixed with 4 μL of each of the three substrate/inhibitor combinations in separate microwells; one well contained 20 μg/mL antipain, one contained 1 mM chymostatin, and one had no inhibitor. After ten minutes, 4 μL of color developer solution was added to each well.

trichomonal hydrolases [2] = assay: Experiment 6 part 2: inhibition of trichomonal hydrolases added to filtered vaginal fluid; type: biochemical, Trichomonas vaginalis; set-up: key: 0: Yellow; 1: Peach; 2: Orange; 3: Light to medium pink; 4: Dark pink or red; 5: Fuchsia; 6: Purple; details: ZRR-MNA, 20 μg/mL antipain or 1 mM chymostatin
Procedure: as §1, §2
Trichomonal hydrolases were added to each of the filtered vaginal fluid specimens—10 μL of trichomonal hydrolase preparation added to 90 μL vaginal fluid filtrate—and the above experiment was repeated.

trichomonal hydrolases [3] = assay: Experiment 13: hydrolysis of peptide substrates by trichomonal hydrolases at low pH in vaginal fluid supernatant; type: biochemical, Trichomonas vaginalis; set-up: key: −: No red color produced; +: Clearly visible red color produced; ++: Moderately intense red color produced; +++: Very intense red color produced; details: Fast Garnet
Procedure: Forty μL of each substrate was pipetted into duplicate wells of a microtiter plate. The plate was covered with tape, placed into a 25° C. incubator, and allowed to warm. A diluted enzyme mixture was prepared by mixing one part (v/v) freshly-thawed trichomonal hydrolase solution to nine parts 2 mM L-cysteine solution. Forty μL of this mixture was added to one well of each pair of duplicate wells. For negative controls, 40 μL of 2 mM L-cysteine was added to the second well in each pair of duplicate wells. The plate was returned to the incubator and incubated for ten minutes. Forty μL of SDS/acetate solution was added to each well, followed by 40 μL of Fast Garnet solution. The intensity of color that developed in each well after five minutes was visually scored using the color scale presented in Table 13.1.
Of the nine substrates hydrolyzed by trichomonal hydrolases to produce an intense pink color (scoring ++ or +++) in the absence of vaginal fluid supernatant, only four produced intense pink color when vaginal fluid supernatant was present.

trichomonal hydrolases [4] = assay: Experiment 14: substrate comparison on swabs with vaginal fluid plus trichomonal hydrolases at low pH; type: biochemical, Trichomonas vaginalis; details: threonine pH 2.4, 0-9 scale
Procedure: For each pair of vaginal fluid specimens from a donor, one swab was rubbed on one substrate film and the other swab was rubbed on a different substrate film; two substrates were compared at a time. The concentrations of the substrates varied from 150 mM to 320 mM in the solutions used to make the substrate films, but each specific comparison matched equimolar concentrations of substrates (as specified in Tables 14.1, 14.2, and 14.3 below). In the swabs, the substrate was diluted by vaginal fluid and buffer, and the final concentration of substrate in the swab tip was estimated to be 1/60 of the concentration of substrate in the solutions used to make the films. Immediately after each swab was rubbed on a substrate film, a 35-μL drop of threonine buffer was applied to the plastic where the substrate film had been, and the swab was rubbed on the same spot again until the buffer was absorbed into the swab. The swabs were left lying on the plastic for ten minutes, then each swab was rubbed on a Fast Red or Fast Garnet film. For the comparisons between ZLR and ZVR, and between VLR-MNA and ZRRR-MNA, films made with 10 mM Fast Garnet were used; for the comparison between ZVR and VLR-MNA, films made with 70 mM Fast Red were used. The intensity of pink color that developed on each swab after two minutes was visually scored using the 0-9 color scale presented in Table 11.1 above; fractional scores such as 1.3 were used when color intensities between swabs differed only slightly. In this part of the experiment, 20 μL of trichomonal hydrolases was applied to the tip of each swab containing vaginal fluid just prior to running the assay. Otherwise, the procedure was exactly the same as for the swabs containing only vaginal fluid.

[5] = system: endogenous hydrolases present in normal vaginal fluid; assay: Experiment 14: substrate comparison on swabs with normal vaginal fluid at low pH; type: biochemical, human; set-up: key: 0: Colorless or yellow - no pink color; trace: Peach or orange; 1: Faint pink; 2-8: Intermediate intensities of pink; 8: Very intense pink/red; details: Normal (n = 3); 150 mM substrate film solution; threonine pH 2.4; Fast Red; 0-9 scale
Procedure: Mixtures were made of the 400 mM substrate stock solutions, 25% hydroxy-propylcellulose solution, 200 mM L-cysteine, along with additional ethanol to a final concentration of 150-320 mM substrate, 20 mM L-cysteine, and 2-5% hydroxypropyl-cellulose. Substrate films were made by pipetting 1 μL of a mixture over a circular area approximately […] in diameter on a sheet of Mylar, and drying under a stream of dry nitrogen. The dried films were stored in a container with desiccant until used.
For each pair of vaginal fluid specimens from a donor, one swab was rubbed on one substrate film and the other swab was rubbed on a different substrate film; two substrates were compared at a time. The concentrations of the substrates varied from 150 mM to 320 mM in the solutions used to make the substrate films, but each specific comparison matched equimolar concentrations of substrates (as specified in Tables 14.1, 14.2, and 14.3 below). […] The intensity of pink color that developed on each swab after two minutes was visually scored using the 0-9 color scale presented in Table 11.1 above; fractional scores such as 1.3 were used when color intensities between swabs differed only slightly.

trichomonal hydrolases [6] = assay: Experiment 17: effect of amount of VLR-MNA on color produced by trichomonal hydrolases on swabs; type: biochemical, Trichomonas vaginalis; details: 0-9 scale
Procedure: Solution A, containing 10% v/v trichomonal hydrolases and 2 mM L-cysteine, was prepared by mixing 20 μL of trichomonal hydrolases with 4 μl of 100 mM L-cysteine and 176 μL of water, and Solution B, containing 20% v/v trichomonal hydrolases, 5% v/v normal vaginal fluid supernatant and 2 mM L-cysteine, was prepared by mixing 40 μL of trichomonal hydrolases with 10 μL of normal vaginal fluid supernatant, 4 μL of 100 mM L-cysteine and […]. Several 35 μL drops each of Solution A, Solution B, and threonine buffer were individually pipetted onto discrete, separated areas on a sheet of Mylar. Individual cotton swabs were rubbed on a drop of either Solution A or Solution B, then on one, two or three dots of substrate, and then on a drop of buffer. After ten minutes, each swab was rubbed on an indicator film. The intensity of pink color that developed on each swab after thirty seconds was visually scored in 0.5 unit increments using the 0-9 color scale presented in Table 11.1.

trichomonal hydrolases [7] = assay: Experiment 13: hydrolysis of peptide substrates by trichomonal hydrolases at low pH, no vaginal fluid; type: biochemical, Trichomonas vaginalis; set-up: key: −: No red color produced; +: Clearly visible red color produced; ++: Moderately intense red color produced; +++: Very intense red color produced; details: without vaginal fluid; threonine buffer pH 2.4; 2 mM substrate solution; 10 min 25° C.; Fast Garnet
Outline: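 Peptide substrates incubated in duplicate for 10 min at 25° C. with trichomonal hydrolase diluted 1:9 in 2 mM L-cysteine; negative controls received L-cysteine alone. SDS/acetate and Fast Garnet added, and color visually scored after 5 min on a color scale.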

trichomonal hydrolases [8] = assay: Experiment 11: hydrolysis of ZRRR-MNA by trichomonal hydrolases at pH 1.9-3.4, read on swab; type: biochemical, Trichomonas vaginalis; details: Fast Red RL, 0-9 scale
Procedure: The 200 mM ZRRR-MNA solution was mixed with 25% hydroxypropylcellulose solution and additional ethanol to a final concentration of 80 mM ZRRR-MNA and 5% hydroxypropyl-cellulose. Substrate films were made by pipetting 1 μL of a mixture over a circular area approximately ¼-inch in diameter on a sheet of Mylar, and drying under a stream of dry nitrogen. An 80-μL aliquot of a malic acid buffer solution, at each pH listed above, was pipetted into each of eight separate round-bottom wells on a microtiter plate. Eighty μL of 10% trichomonal hydrolase solution was added to each well and mixed thoroughly. Half of the volume in each well (80 μL) was then transferred to a second set of eight wells, into which the swabs were then inserted. After the 80 μL of liquid was absorbed from each well into the respective swab, each swab was rubbed on a substrate film. Ten minutes after the swabs were exposed to substrate, each swab was rubbed on an indicator (Fast Red) film. The intensity of pink color that developed on each swab after one minute was visually scored in 0.5 unit increments using the 0-9 color scale presented in Table 11.1 below. To determine the final pH of the eight mixtures of trichomonal hydrolases and buffer, the pH of the liquid remaining in the first set of eight wells was measured using a pH meter. The experiment was repeated omitting the lowest pH and highest pH wells.

[9] = Hydrolases added (n = 2), 150 mM substrate film solution, Fast Red
[10] = Hydrolases added (n = 5), 200 mM substrate film solution, Fast Garnet

In the case of `CC(C)C[C@H](NC(=O)[C@@H](NC(=O)N[C@@H](Cc1ccccc1)C(=O)O)[C@@H]1CCN=C(N)N1)C(=O)N[C@H](C=O)Cc1ccccc1` [Chymostatin, chymostatin], the “Hydrolase activity color score with inhibitor” value ([1]; Donor A) is reported as 0, the “Hydrolase activity color score with inhibitor” value ([1]; Donor B) is reported as 0 and the “Hydrolase activity color score with inhibitor” value ([1]; Donor C) is reported as 0. For the same molecule, the “Hydrolase activity color score with inhibitor” value ([1]; Donor D) was 2, the “Hydrolase activity color score with inhibitor” value ([1]; Donor E) was 0 and the “Hydrolase activity color score with inhibitor” value ([1]; Donor F) was 0. For the same molecule, the “Hydrolase activity color score with inhibitor” value (trichomonal hydrolases [2]; Donor A filtrate supplemented with trichomonal hydrolases) was 3.5, the “Hydrolase activity color score with inhibitor” value (trichomonal hydrolases [2]; Donor B filtrate supplemented with trichomonal hydrolases) was 3.5 and the “Hydrolase activity color score with inhibitor” value (trichomonal hydrolases [2]; Donor C filtrate supplemented with trichomonal hydrolases) was 3.5. For the same molecule, the “Hydrolase activity color score with inhibitor” value (trichomonal hydrolases [2]; Donor D filtrate supplemented with trichomonal hydrolases) was 4, the “Hydrolase activity color score with inhibitor” value (trichomonal hydrolases [2]; Donor E filtrate supplemented with trichomonal hydrolases) was 3 and the “Hydrolase activity color score with inhibitor” value (trichomonal hydrolases [2]; Donor F filtrate supplemented with trichomonal hydrolases) was 3.

For `COc1cc(NC(=O)C(CCCN=C(N)N)NC(=O)C(CC(C)C)NC(=O)C(N)C(C)C)cc2ccccc12` [VLR-MNA, D-Val-Leu-Arg-MNA], the “Color Score” value (trichomonal hydrolases [3]) was “+++”, the Color Score (trichomonal hydrolases [4]; [9]) was 2 to 2.5 and the Color Score (trichomonal hydrolases [4]; [10]) was 1 to 4. It also gave a Color Score [5] of 0, a Color Score (trichomonal hydrolases [6]; Solution A (10% trichomonal hydrolases, no vaginal fluid), One dot of Substrate) of 5.5 and a Color Score (trichomonal hydrolases [6]; Solution A, Three dots of Substrate) of 9. It also gave a Color Score (trichomonal hydrolases [6]; Solution A, Two dots of Substrate) of 7, a Color Score (trichomonal hydrolases [6]; Solution B (20% trichomonal hydrolases, 5% normal vaginal fluid supernatant), One dot of Substrate) of 2.5 and a Color Score (trichomonal hydrolases [6]; Solution B, Three dots of Substrate) of 5.5. For the same molecule, the Color Score (trichomonal hydrolases [6]; Solution B, Two dots of Substrate) was 4 and the “Color Score” value (trichomonal hydrolases [7]) was “+++”.

With `CC(=O)O.COc1cc(NC(=O)[C@H](CCCN=C(N)N)NC(=O)[C@H](CCCN=C(N)N)NC(=O)[C@H](CCCN=C(N)N)NC(=O)OCc2ccccc2)cc2ccccc12` [ZRRR-MNA, CBZ-Arg-Arg-Arg-MNA] the “Color Score” value (trichomonal hydrolases [3]) was “++”, the “Color Scores” value (trichomonal hydrolases [8]; malic acid pH 1.3 / final pH in wells 1.9) was 2 and the “Color Scores” value (trichomonal hydrolases [8]; malic acid pH 1.6 / final pH 2.1, 1st experiment and duplicate) was 4.5. The “Color Scores” value (trichomonal hydrolases [8]; malic acid pH 1.9 / final pH 2.3, 1st experiment and duplicate) was 5, the “Color Scores” value (trichomonal hydrolases [8]; malic acid pH 2.2 / final pH 2.4, 1st experiment and duplicate) was 5.5 and 6 and the “Color Scores” value (trichomonal hydrolases [8]; malic acid pH 2.5 / final pH 2.6, 1st experiment and duplicate) was 5.5 and 5. For the same molecule, the “Color Scores” value (trichomonal hydrolases [8]; malic acid pH 2.8 / final pH 2.9, 1st experiment and duplicate) was 5 and 3.5, the “Color Scores” value (trichomonal hydrolases [8]; malic acid pH 3.1 / final pH 3.2, 1st experiment and duplicate) was 4.5 and 3 and the “Color Scores” value (trichomonal hydrolases [8]; malic acid pH 3.4 / final pH 3.4) was 3. The Color Score (trichomonal hydrolases [4]; [10]) was 1 to 4 and the “Color Score” value (trichomonal hydrolases [7]) was “+++”.

In the case of `COc1cc(NC(=O)[C@H](CCCNC(=N)N)NC(=O)[C@@H](NC(=O)OCc2ccccc2)C(C)C)cc2ccccc12` [ZVR, CBZ-Val-Arg-MNA], the “Color Score” value (trichomonal hydrolases [3]) is reported as “++”, the Color Score (trichomonal hydrolases [4]; [9]) is reported as 4.5 to 5 and the Color Score (trichomonal hydrolases [4]; Hydrolases added (n = 4), 320 mM substrate film solution, Fast Garnet) is reported as 1 to 5. For the same molecule, the Color Score [5] was 2.5 to 3 and the “Color Score” value (trichomonal hydrolases [7]) was “+++”.
